# Test results reported in US10232047B2, “Topical oil composition for the treatment of fungal infections” (VYOME BIOSCIENCES PVT LTD., priority 2011, dated 2019).
# Legend:
# M. furfur (MTCC 1374) = assay: Lipid assimilation in vitro assay: growth of M. furfur on Sabouraud Dextrose agar supplemented with fatty acids/esters or oils; type: cell-based, Malassezia furfur; conditions: up to 6 days
# From the text: (§1) Malassezia species are lipophilic unipolar yeasts recognized as commensals of skin that may be pathogenic under certain conditions (Indian Journal of Medical Microbiology, (2004) 22 (3):179-181). To compare lipid requirements of the fungus most closely associated with dandruff/seborrheic dermatitis, the best studied Malassezia species is M. furfur. Lipid assimilation in vitro assay was designed to investigate lipid effect on growth of M. furfur (MTCC 1374).
# Method: Briefly, Sabouraud Dextrose containing low-melt agar was melted, cooled to 38° C. Fatty acids/esters constituents eg, capric acid, caprylic acid, linoleic acid, oleic acid, lauric acid, palmitic acid, ethyl oleate, isopropyl myristate and oils containing fatty acid/esters eg, coconut oil, mustard oil etc., were added to study the growth of the fungus (Kaw Bing CHUA, et al Malaysian J Pathol (2005) 27(2): 99). After solidification, agar plates were streaked with M. furfur innoculum adjusted to appropriate cfu/ml, aseptically. Positive control with 2% olive oil and negative control without fatty substance were also maintained.
# as §1, with “lipophilic,” for “lipophilic”, “conditions.” for “conditions (Indian Journal of Medical Microbiology, (2004) 22 (3):179-181).”, “A lipid” for “Lipid”, “effect <C-11 fatty acid or their esters” for “effect”
# Briefly, Sabouraud Dextrose containing low-melt agar was melted and cooled to 38° C. Fatty acids/esters constituents, e.g., caprylic acid, capric acid and Monocaprylate of propylene glycol, were added in 2% concentration to study the growth of the fungus. After solidification, agar plates were streaked with M. furfur innoculum adjusted to appropriate cfu/ml, aseptically. Positive control with 2% olive oil and negative control without fatty substance were also maintained.
# A lipid assimilation in vitro assay was designed to investigate lipid effect >C-10 fatty acid or their esters on growth of M. furfur (MTCC 1374). Sabouraud Dextrose containing low-melt agar was melted and cooled to 38° C. Fatty acids/esters constituents, e.g. fatty acids or esters, such as lauric acid, palmitic acid, myristic acid, oleic acid, linoleic acid, isopropyl myristate, ethyl oleate, mustard oils, coconut oil were added at different concentration to study the growth of the fungus. Positive control with 2% olive oil and negative control without fatty substance were also maintained. After solidification, agar plates were streaked with M. furfur innoculum adjusted to appropriate cfu/ml, aseptically.
# [1] = tested on: Malassezia furfur (MTCC 1374); assay: MIC by agar dilution method in Leeming Notman Medium; type: cell-based; set-up: key: “+” indicates growth of fungus; “−” indicates no growth of fungus; conditions: M. furfur
# Experimental: The Minimum Inhibitory Concentration (MIC) is considered as an index for indicating Anti-fungal efficacy. Therefore lower the value of MIC of the composition, the better is its anti-fungal efficacy.
# Method: The in vitro activities of some of the oil compositions containing piroctone olamine against Malassezia furfur (MTCC 1374) were determined by agar dilution methods (Jan Faergemann, et al Acta Derm Venereol, (2006), 86:312; Irith Wiegand, et al Nature Protocols (2008), 3:163) Appropriate dilutions of solubilized antifungal compositions were added to molten Leeming Notman Medium. Once the plates were set, M. furfur innoculum adjusted to appropriate cfu/ml was streaked on the agar plates and incubated for 6 days. […] The MIC is defined as as the lowest concentration of antifungal agents that inhibits visible growth of fungus.
# Method: The in vitro activities of some of the oil compositions containing ketoconazole against Malassezia furfur (MTCC 1374) were determined by agar dilution methods. Appropriate dilutions of antifungal compositions were added to molten Leeming Notman Medium. Once the plates were set, M. furfur innoculum adjusted to appropriate cfu/ml was streaked on the agar plates and incubated for 6 days. […] The MIC is defined as the lowest tested dilution of antifungal active that yields no growth.
# B) Study of MIC of Oil Compositions Devoid of C-11 or Greater Fatty Acids/Esters Containing Antifungal Agent Piroctone Olamine Against M. furfur Under in vitro Conditions.
# M. obtusa = assay: MIC of oil compositions against M. obtusa; type: cell-based; set-up: key: “+” indicates growth of fungus; “−” indicates no growth of fungus
# [2] = Example 6B, different concentration (olive oil 2%)
# [3] = Table 6, compositions of Table 5
# [4] = piroctone olamine oil compositions, incubated 6 days
structure (smiles),measurement,setting,value
CCCCCCCCCC(=O)O [capric acid],Growth of M. furfur with the substance as nutrient in culture media,M. furfur (MTCC 1374); Example 3,no growth
same,Growth of M. furfur with the substance as nutrient in culture media,"M. furfur (MTCC 1374); Example 6A, 2% concentration",no growth
CCCCCCCCCCCCCC(=O)OC(C)C [isopropyl myristate],Growth of M. furfur with the substance as nutrient in culture media,M. furfur (MTCC 1374); Example 3,confluent growth
same,Growth of M. furfur with the substance as nutrient in culture media,M. furfur (MTCC 1374); [2],confluent growth
CCCCC/C=C\C/C=C\CCCCCCCC(=O)O [linoleic acid],Growth of M. furfur with the substance as nutrient in culture media,M. furfur (MTCC 1374); Example 3,confluent growth
same,Growth of M. furfur with the substance as nutrient in culture media,M. furfur (MTCC 1374); [2],confluent growth
CCCCCCCCCCCC(=O)O [lauric acid],Growth of M. furfur with the substance as nutrient in culture media,M. furfur (MTCC 1374); Example 3,confluent growth
same,Growth of M. furfur with the substance as nutrient in culture media,M. furfur (MTCC 1374); [2],confluent growth
CCCCCCCC(=O)O [caprylic acid],Growth of M. furfur with the substance as nutrient in culture media,M. furfur (MTCC 1374); Example 3,no growth
same,Growth of M. furfur with the substance as nutrient in culture media,"M. furfur (MTCC 1374); Example 6A, 2% concentration",no growth
CCCCCCCC/C=C\CCCCCCCC(=O)OCC [ethyl oleate],Growth of M. furfur with the substance as nutrient in culture media,M. furfur (MTCC 1374); Example 3,confluent growth
same,Growth of M. furfur with the substance as nutrient in culture media,M. furfur (MTCC 1374); [2],confluent growth
"Cc1cc(CC(C)CC(C)(C)C)n(O)c(=O)c1.NCCO (stereo not drawn) [PO in DMSO, Piroctone olamine]",Growth of fungus at concentration 8 μg/ml (MIC determination),[1]; [3],+
same,Growth of fungus at concentration 8 μg/ml (MIC determination),[1]; [4],+
same,Growth of fungus at concentration 16 μg/ml (MIC determination),[1]; [3],+
same,Growth of fungus at concentration 16 μg/ml (MIC determination),[1]; [4],+
same,Growth of fungus at concentration 32 μg/ml (MIC determination),[1]; [3],−
same,Growth of fungus at concentration 32 μg/ml (MIC determination),[1]; [4],−
same,Growth of fungus at concentration 64 μg/ml (MIC determination),[1]; [3],−
same,Growth of fungus at concentration 64 μg/ml (MIC determination),[1]; [4],−
same,Growth of fungus at concentration 4 μg/ml (MIC determination),M. obtusa; 4 μg/ml,+
same,Growth of fungus at concentration 8 μg/ml (MIC determination),M. obtusa; 8 μg/ml,+
same,Growth of fungus at concentration 16 μg/ml (MIC determination),M. obtusa; 16 μg/ml,+
same,Growth of fungus at concentration 32 μg/ml (MIC determination),M. obtusa; 32 μg/ml,−
same,Growth of fungus at concentration 64 μg/ml (MIC determination),M. obtusa; 64 μg/ml,−
"CC(=O)N1CCN(c2ccc(OCC3COC(Cn4ccnc4)(c4ccc(Cl)cc4Cl)O3)cc2)CC1 (stereo not drawn) [Keto in DMSO, Ketoconazole]",Growth of fungus at concentration 0.0625 μg/ml (MIC determination),"[1]; 0.0625 μg/ml, ketoconazole oil compositions, incubated 6 days",+
same,Growth of fungus at concentration 0.125 μg/ml (MIC determination),"[1]; 0.125 μg/ml, ketoconazole oil compositions, incubated 6 days",+
same,Growth of fungus at concentration 0.25 μg/ml (MIC determination),"[1]; 0.25 μg/ml, ketoconazole oil compositions, incubated 6 days",−
same,Growth of fungus at concentration 0.5 μg/ml (MIC determination),"[1]; 0.5 μg/ml, ketoconazole oil compositions, incubated 6 days",−
same,Growth of fungus at concentration 1 μg/ml (MIC determination),"[1]; 1 μg/ml, ketoconazole oil compositions, incubated 6 days",−
same,Growth of fungus at concentration 2 μg/ml (MIC determination),"[1]; 2 μg/ml, ketoconazole oil compositions, incubated 6 days",−
CCCCCCCCCCCCCC(=O)O [myristic acid],Growth of M. furfur with the substance as nutrient in culture media,M. furfur (MTCC 1374); [2],confluent growth
CCCCCCCC/C=C\CCCCCCCC(=O)O [oleic acid],Growth of M. furfur with the substance as nutrient in culture media,M. furfur (MTCC 1374); Example 3,confluent growth
same,Growth of M. furfur with the substance as nutrient in culture media,M. furfur (MTCC 1374); [2],confluent growth
CCCCCCCCCCCCCCCC(=O)O [palmitic acid],Growth of M. furfur with the substance as nutrient in culture media,M. furfur (MTCC 1374); Example 3,confluent growth
same,Growth of M. furfur with the substance as nutrient in culture media,M. furfur (MTCC 1374); [2],confluent growth
